Assay results from patent US20090124657A1, “PHARMACEUTICAL COMPOSITIONS COMPRISING MONTELUKAST” (priority 2007, published 2009).

Assay: Susceptibility of montelukast sodium to degradation
Type: physicochemical

Susceptibility to oxidative degradation (including atmospheric oxygen) (significant increase in mok-3 sulfoxide impurity): highly susceptible
Susceptibility to acid hydrolysis (significant increase in styrene impurity): highly susceptible
Structure (SMILES): CC(C)(O)c1ccccc1CC[C@@H](SCC1(CC(=O)O)CC1)c1cccc(/C=C/c2ccc3ccc(Cl)cc3n2)c1 [Montelukast sodium, [R-(E)]-1-[[[1-[3-[2-(7-chloro-2-quinolinyl)ethenyl]phenyl]-3-[2-(1-hydroxy-1-methylethyl)phenyl]propyl]thio]methyl]cyclopropaneacetic acid]
